The values below come from US20130065868A1, “ANXIOYTIC MARCGRAVIACEAE COMPOSITIONS CONTAINING BETULINIC ACID, BETULINIC ACID DERIVATIVES, AND METHODS” (UNIVERSITY OF OTTAWA, priority 2002, published 2013).

In assay [1] the test system is Sprague-Dawley rats. Nature of the assay: Elevated plus-maze (EPM) test in rats. Particulars: 1 mg/kg in peanut oil orally (gavage), 45-60 min after treatment, vs peanut oil (FIG. 3). The class given is in vivo, rat. How it is done:
The majority of tests described in the following examples were conducted on adult; male Sprague-Dawley rats (typically weighing ˜300-450 gm) were obtained from Charles River Canada, St. Constant, Quebec. They were individually housed in standard clear Plexiglas cages (24×30×18 cm) and maintained on a 12 hr light/dark cycle (7:00 A.M.-7:00 P.M. light phase) in a temperature and humidity controlled room. Unless indicated otherwise, animals had free access to water and maintained on a restricted diet of 5 pellets a day of Purina Lab Chow. All experimental procedures complied with the guidelines of the Canadian Council on Animal Care and were approved by the Research Ethics Committee at the University of Ottawa. […]
The EPM constitutes of a plus-shaped maze with two enclosed arms (or alleys; 50×10×40 cm) and two open arms (or planks; 50×10 cm), with a 10×10 cm central zone. […] To avoid distractions, the EPM was surrounded by black curtain and the subjects were monitored remotely, using a closed circuit camera mounted above the set-up.
The rats were randomly assigned to each of the drug conditions. […] Behaviours scored included time spent in the open arms of the maze, time spent in the closed arms of the maze, number of entries into the open-arms and number of entries into the closed arm of the maze. […]

For assay [2], the system named is Sprague-Dawley rats. Nature of the assay: Rat social interaction paradigm. The class given is in vivo. Particulars: 0.5 mg/kg i.p. The source says:
The rat social interaction paradigm takes advantage of rats' natural behaviour in novel situations. The more ‘anxious’ the animals are, the less likely they are engage in social interaction with the cohort. Anxiolytic drugs typically increase the amount of time rodents spend socially interacting with one another. (Pile, S. E., (1980). The use of social interaction as a method for detecting anxiolytic activity of chlor-diazepoxide-like drugs. In Current Protocols in Neuroscience (pp. 8.3.3-8.3.4), John-Wiley & Sons).
The social-interaction (SI) test arena constituted of a 60×60 cm white Plexiglas floor, enclosed by 35-cm high walls of the same material. The arena was surrounded by black curtain, and a closed circuit camera was positioned above the setup, to feed live video signals to the experimenter seated in a separate room, for behavioral assessment and recording.
Each rat was placed alone in the SI box for 7.5 min daily for 2 days, in order to familiarize the animals with the test environment. Animals were paired according to their body weights (less than 10 g difference) and each pair was randomly assigned to one of the treatment groups. Rats received either betulinic acid 0.5 mg/kg i.p., betulinic acid methyl ester (methyl betulinate) 0.5 mg/kg i.p., or peanut oil only (control). Drugs were injected (i.p.) 60 min prior to testing. Tests were carried out at three intervals, 1 h, 2.5 h and 4 h after injection. Each pair was tested at the 1-h interval, then new pairs from within the same drug group were formed for the 2.5-h interval and then again at the 4-h interval (new pairs were formed for each test interval, to control for the potential confounding effect partner familiarity). […] The behaviors scored included the amount of time the pairs spent interacting together (sniffing, grooming and chasing) as well as the number of times the animals initiated contact.

The target in a further assay is MAO B (Homo sapiens, UniProt P27338). Nature of the assay: MDS Panlabs screen: MAO B. The class given is biochemical. Particulars: Catecholamines. How it is done:
(§1) Tests were conducted by MDS Panlabs to determine whether any of the classical neurotransmitter systems or the peptidergic systems thought to play a role in anxiety are affected by betulinic acid.

Another assay concerns GABA transporter. Nature of the assay: MDS Panlabs screen: GABA transporter. It is filed as binding. Particulars: Gabaergic. How it is done:
as §1

Another assay deals with GABAA, agonist site. Nature of the assay: MDS Panlabs screen: GABAA, agonist site. It is filed as binding. Particulars: Gabaergic. On the procedure:
as §1

The target of the next assay is 5-HT1A (Homo sapiens, UniProt P08908). Nature of the assay: MDS Panlabs screen: 5-HT1A. As to conditions: Serotonin (5-HT). It is filed as binding. On the procedure: as §1
Chain of 5-HT1A (P08908 whole entry, species assumed): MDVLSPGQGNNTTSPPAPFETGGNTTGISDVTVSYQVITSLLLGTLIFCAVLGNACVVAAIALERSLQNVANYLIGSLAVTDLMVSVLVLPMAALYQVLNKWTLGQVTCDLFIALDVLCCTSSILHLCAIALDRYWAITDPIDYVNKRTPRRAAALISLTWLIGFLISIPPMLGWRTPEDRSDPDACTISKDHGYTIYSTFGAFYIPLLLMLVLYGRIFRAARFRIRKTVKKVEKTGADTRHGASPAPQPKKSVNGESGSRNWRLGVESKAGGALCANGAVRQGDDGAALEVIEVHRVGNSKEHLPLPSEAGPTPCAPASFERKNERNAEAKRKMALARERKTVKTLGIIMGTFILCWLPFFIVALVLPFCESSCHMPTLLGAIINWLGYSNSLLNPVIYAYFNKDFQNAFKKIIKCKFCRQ
For another assay, the target named is galanin GALR2 (Homo sapiens, UniProt O43603). Nature of the assay: MDS Panlabs screen: galanin GALR2. It is filed as binding. Particulars: Peptides. On the procedure: as §1
Chain of galanin GALR2 (O43603 whole entry): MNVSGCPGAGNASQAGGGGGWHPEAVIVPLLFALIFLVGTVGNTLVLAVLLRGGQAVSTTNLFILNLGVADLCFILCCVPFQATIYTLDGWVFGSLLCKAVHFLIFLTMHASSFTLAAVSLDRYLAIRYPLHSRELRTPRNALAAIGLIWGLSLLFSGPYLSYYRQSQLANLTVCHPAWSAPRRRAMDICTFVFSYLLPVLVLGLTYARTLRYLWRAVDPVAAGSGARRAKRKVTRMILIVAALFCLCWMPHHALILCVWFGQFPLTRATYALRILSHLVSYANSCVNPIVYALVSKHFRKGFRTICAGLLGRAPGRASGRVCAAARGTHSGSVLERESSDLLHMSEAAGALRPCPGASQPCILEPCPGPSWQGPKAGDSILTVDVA
For another assay, the system named is neurotensin. Nature of the assay: MDS Panlabs screen: neurotensin. Particulars: Peptides. It is filed as binding. On the procedure: as §1

Chain of MAO B (P27338 whole entry): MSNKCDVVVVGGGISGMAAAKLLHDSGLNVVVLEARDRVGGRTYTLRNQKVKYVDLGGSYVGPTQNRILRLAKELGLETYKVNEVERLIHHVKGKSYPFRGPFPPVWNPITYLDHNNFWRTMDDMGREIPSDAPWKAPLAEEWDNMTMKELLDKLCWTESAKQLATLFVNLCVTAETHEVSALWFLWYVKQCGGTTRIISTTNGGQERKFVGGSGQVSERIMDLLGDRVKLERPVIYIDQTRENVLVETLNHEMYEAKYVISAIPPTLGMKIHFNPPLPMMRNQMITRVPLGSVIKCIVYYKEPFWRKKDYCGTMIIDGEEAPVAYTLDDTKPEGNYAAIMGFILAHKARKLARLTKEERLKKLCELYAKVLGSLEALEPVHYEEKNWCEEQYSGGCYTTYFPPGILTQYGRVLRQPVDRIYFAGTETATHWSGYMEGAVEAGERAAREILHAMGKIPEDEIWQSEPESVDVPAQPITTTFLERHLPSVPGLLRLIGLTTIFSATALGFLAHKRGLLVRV

Turning to `C=C(C)[C@@H]1CC[C@]2(C(=O)O)CC[C@]3(C)C(CC[C@@H]4[C@@]5(C)CC[C@H](O)C(C)(C)[C@@H]5CC[C@]43C)[C@@H]12` (stereo partly drawn) [betulinic acid, Betulinic acid], the “time spent on the open arms of the plus-maze” value in the assay with Sprague-Dawley rats [1] was “spent significantly more time on the open arms of the plus-maze”. The “frequency of initiated contact” value in the assay with Sprague-Dawley rats [2] is on record as “not significant”. For the same molecule, the “amount of social interaction (interaction time) compared to the control group” value in the assay with Sprague-Dawley rats [2] (data collapsed across 1 h, 2.5 h and 4 h (FIG. 8)) is listed as “significantly increased the amount of social interaction”. Further, the “affected by betulinic acid” value is “none of the following neurotransmitters or proteins were affected” on MAO B; “none of the following neurotransmitters or proteins were affected” in the assay with GABA transporter; “none of the following neurotransmitters or proteins were affected” with GABAA, agonist site; “none of the following neurotransmitters or proteins were affected” at 5-HT1A; “none of the following neurotransmitters or proteins were affected” at galanin GALR2; “none of the following neurotransmitters or proteins were affected” in the assay with neurotensin.
